According to patent publication US20180271863A1, “TARGETING P2 PURINERGIC RECEPTORS TO TREAT HEPATOCELLULAR CARCINOMA (HCC)” (Baylor College of Medicine, priority 2015, published 2018):
Entries after “also recorded” stand apart in the source; their conditions may differ.

Tests used:
Format in all cases: cell-based, human
Huh7 cells [1] = assay: BrdU incorporation (proliferation) in Huh7 cells; conditions: for BrdU incorporation / BrdU positive nuclei: nucleotide 100 μM
Protocol: To determine whether P2 purinergic receptor activation influences HCC cell proliferation, BrdU incorporation was assessed in HCC cells maintained in SFM for 24 hours and treated with ATP for 24 hours. ATP treatment alone was sufficient to induce proliferation in each of these cell lines (Huh7, 34%; Hep3B, 46%; SNU-387, 47% and PLC/PRF/5, 24%), identifying nucleotides as liver cancer cell mitogens (FIG. 7A).
Extracellular ATP can be hydrolyzed to ADP and adenosine by ectonucleotidases at the plasma membrane. Therefore, Applicants tested the effects of ATPγS (non-hydrolyzable analog of ATP) or ADP (break down product of ATP) (100 μM) on Huh7 cell proliferation. ATPγS treatment alone was sufficient to induce BrdU incorporation as early as 12 hours (42%); maintained at 18 h (30%) and 24 h (29%) in Huh7 cells (FIG. 8). ADP was also able to independently increase the number of BrdU positive nuclei (12 h, 30%; 18 h, 35%; 24 h, 37%) (FIG. 8). Furthermore, ATP treatment (18 h) increased cell proliferation and viability in all four cell lines, as determined by MTT assay (Huh7, 65%; Hep3B, 81%; SNU-387, 90% and PLC/PRF/5, 43%) (FIG. 7B).
(§1) Normal human primary hepatocytes isolated from healthy adults (no known history of HCC) in suspension or freshly-frozen prior to shipment (Cryoport Systems, CA) were purchased from Triangle Research Labs, NC. Fresh hepatocytes were plated on collagen-coated tissue culture plates or glass coverslips in Williams E complete media with additives (10% fetal bovine serum, 2 mM glutamine, […] insulin, 4 ng/ml glucagon, […] transferrin, 2.5 ng/ml sodium selenite, 10,000 U/ml penicillin, […] streptomycin, 50 g/ml gentamycin) for 3 h to ensure hepatocyte adherence to plates. Subsequently, hepatocytes were maintained in Williams E minimal media free from serum and growth factors for 24 h prior to treatment. Human hepatocellular carcinoma derived Huh7, and Hep3B, were cultured in Minimum Essential Medium Eagle (MEM); SNU-387 was cultured in Roswell Park Memorial Institute (RPMI) medium and PLC/PRF/5 cultured in Dulbecco's Modified Eagle's medium (DMEM). All maintenance culture media were supplemented with 10% fetal bovine serum (FBS), L-Glutamine (2 mM), penicillin (100 units/ml) and streptomycin ([…]) at 37° C. and 5% CO2. Cells were maintained in serum free media (containing 2 mM L-Glutamine, 100 units/ml penicillin and ([…])) streptomycin for 24 h prior to treatment.
Formalin-fixed and paraffin embedded liver sections from HCC patients were analyzed by immunohistochemistry with anti-P2X3 antibody (Abcam, Cambridge, Mass.). HCC cells were grown on glass coverslips; BrdU (10 μM, Roche, Indianapolis, Ind.) was added to culture media for 1 h prior to fixation (cold acetone:methanol, 1:1) and stained using anti-BrdU antibody (DAKO, Carpinteria, Calif.) and DAB Peroxidase Substrate Kit (Vector Labs, Burlingame, Calif.), according to manufacturer's instructions. Counterstaining was done with hematoxylin. BrdU positive cells were counted and expressed as a percentage of the total number of cells in ten randomly selected high-power fields (20×) per coverslips.

Huh7 cells [2] = assay: Western blotting of cyclin and CDK proteins in Huh7 cells
Protocol: as §1
Total protein extracts were obtained by homogenizing cells in total lysis buffer (50 mM Tris-HCl, pH 7.5, 0.5 M NaCl, 2 mM EGTA, 2 mM EDTA, 1.0% Triton X-100, 0.25% Deoxycholate, 1 m/ml pepstatin, 1.0 m/ml leupeptin, 1.0 m/ml aprotinin, 1.0 mM phenylmethylsulfonyl fluoride, 1.0 mM Dithiothreitol, 2.0 mM activated Na3VO4, and 2.0 mM NaF) and centrifuging at 14,000 rpm for 10 min (4° C.). Equal amounts of total proteins as determined by BCA protein Assay (Pierce, Rockford, Ill.) were analyzed by Western blotting. Blots were probed with antibody specific for a-tubulin or GAPDH to ensure equal loading of proteins in each lane.

Huh7 cells [3] = assay: Western blotting for survivin in Huh7 cells
Source text: Total protein extracts were obtained by homogenizing cells in total lysis buffer and analyzed by Western blotting as described recently (Oncotarget 2015; 6:41162-41179). Next, Applicants tested whether extracellular nucleotide treatment may have an effect on YAP target genes important in hepatocellular carcinoma. […] Moreover, P2X3 antagonist (AF-353) pretreatment attenuated ATP mediated induction of survivin (FIG. 20G).

Huh7 cells [4] = assay: Western blotting for hippo pathway phosphorylation (Mst1/2, LATS, Yap) in Huh7 cells; conditions: for Mst1/2 phosphorylation: Huh7, serum free 24 hours, as early as 5 minutes, sustained at 4 hours; for induction of Yap phosphorylation: Huh7, 12 h treatment
Protocol: Total protein extracts were obtained by homogenizing cells in total lysis buffer and analyzed by Western blotting as described recently (Oncotarget 2015; 6:41162-41179). […] Therefore, Applicants performed in vitro studies to test whether activation of P2 purinergic receptors may affect the hippo pathway and its downstream effectors. Huh7 cells—human derived hepatocellular carcinoma cells—maintained in serum free media for 24 hours—were treated with P2 purinergic receptor agonists. […] ADP treatment alone was also sufficient to induce LATs phosphorylation (2 h-1.7 fold, 4 h-1.5 fold) (FIG. 20B). […] Hippo kinases Mst1/2 and Lats1/2 work through a phosphorylation cascade to phosphorylate Yap, thereby retaining Yap in the cytoplasm. In spite of nucleotide-mediated Mst1/2 and Lats phosphorylation, ATP, ADP and ATPγS treatment was individually insufficient to induce Yap phosphorylation. […] Similarly, ATP treatment alone increased nuclear YAP protein expression (1.7 fold) (FIG. 20D).

Huh7 cells [5] = assay: Western blotting of Huh7 nuclear fractions for YAP; conditions: 24 h treatment
Source text: Total protein extracts were obtained by homogenizing cells in total lysis buffer and analyzed by Western blotting as described recently (Oncotarget 2015; 6:41162-41179). Hippo kinases Mst1/2 and Lats1/2 work through a phosphorylation cascade to phosphorylate Yap, thereby retaining Yap in the cytoplasm. In spite of nucleotide-mediated Mst1/2 and Lats phosphorylation, ATP, ADP and ATPγS treatment was individually insufficient to induce Yap phosphorylation. […] Similarly, ATP treatment alone increased nuclear YAP protein expression (1.7 fold) (FIG. 20D).

[6] = antagonist alone, serum-free conditions

COc1cc(C(C)C)c(Oc2cnc(N)nc2N)cc1I [AF-353]
effect on ATP-mediated increase in BrdU incorporation (Huh7 cells [1]; AF-353 5 μM pre-treatment, ATP 100 μM 24 hr): completely abolished; also recorded: attenuates
effect on baseline BrdU-positive cells (Huh7 cells [1]; [6]): reduce
effect on ATP-mediated induction of cyclin D3 and cyclin E expression (Huh7 cells [2]; AF-353 5 μM pre-treatment, ATP 24 h): completely attenuated
effect on baseline cyclin protein expression (Huh7 cells [2]; [6]): reduce
effect on ATP mediated induction of survivin (Huh7 cells [3]; AF-353 pretreatment): attenuated

Nc1ncnc2c1ncn2[C@@H]1O[C@H](COP(=O)(O)OP(=O)(O)OP(=O)(O)O)[C@@H](O)[C@H]1O [ATP]
proliferation (BrdU incorporation) induced by ATP (Huh7 cells [1]; SFM 24 hours, ATP 24 hours): 34%
cyclin D3 protein expression (Huh7 cells [2]; ATP 24 hours, serum-free): 3.2 fold
Mst1/2 phosphorylation (Huh7 cells [4]): significantly induced
induction of Yap phosphorylation (Huh7 cells [4]): insufficient
nuclear YAP protein expression compared to untreated cells (Huh7 cells [5]): 1.7 fold

Nc1ncnc2c1ncn2[C@@H]1O[C@H](COP(=O)(O)OP(=O)(O)OP(O)(O)=S)[C@@H](O)[C@H]1O [ATPγS]
BrdU incorporation / BrdU positive nuclei (Huh7 cells [1]; 12 h): 42%
BrdU incorporation / BrdU positive nuclei (Huh7 cells [1]; 18 h): 30%
BrdU incorporation / BrdU positive nuclei (Huh7 cells [1]; 24 h): 29%
cyclin A protein expression (Huh7 cells [2]; ATPγS 18 h): 1.7 fold
cyclin D3 protein expression (Huh7 cells [2]; ATPγS 18 h): 2.7 fold
cyclin E protein expression (Huh7 cells [2]; ATPγS 18 h): 1.7 fold
cyclin A protein expression (Huh7 cells [2]; ATPγS 24 h): 1.2 fold
cyclin D3 protein expression (Huh7 cells [2]; ATPγS 24 h): 2.8 fold
cyclin E protein expression (Huh7 cells [2]; ATPγS 24 h): 1.3 fold
CDK2 protein expression (Huh7 cells [2]; ATPγS 30 h): 1.6 fold
CDK4 protein expression (Huh7 cells [2]; ATPγS 30 h): 1.4 fold
cyclin A protein expression (Huh7 cells [2]; ATPγS 30 h): 1.2 fold
cyclin D3 protein expression (Huh7 cells [2]; ATPγS 30 h): 2.1 fold
cyclin E protein expression (Huh7 cells [2]; ATPγS 30 h): 2.2 fold
Mst1/2 phosphorylation (Huh7 cells [4]): significantly induced
induction of Yap phosphorylation (Huh7 cells [4]): insufficient
nuclear YAP protein expression compared to untreated cells (Huh7 cells [5]): 2.8 fold
survivin protein expression (Huh7 cells [3]; ATPγS treatment alone): 1.8 fold
